Data reported in patent US20070148094A1, “Polymeric imaging agents and medical imaging methods” (priority 2005, published 2007).

System: rat mammary tumor line (MAT-B-III)
Test: Optical (NIR fluorescence) imaging of tumor to background ratio in tumor rat model
Assay type: in vivo
From the text: For optical imaging the signal to ratio background ratio is defined as the mean fluorescence intensity (target tissue)/mean fluorescence intensity (background tissue). For optical imaging methods, target to background ratio may be determined using computer-controlled (LabVIEW) camera acquisition via custom LabVIEW software. […] A region of interest (ROI) maybe defined in both the tumor area and the background tissue area. Fluorescence emission from the ROI may be received at a near-infrared sensitive 12-bit CCD camera, in which the intensities range from 0-4095.
Optical Imaging Using Tumor Rat Model. Step 1. Introduction of Tumor Cells into Animal. Intra-mammary gland tumor injection is a survival surgery. All procedures are performed with the animal lying on a circulating water pad. With the anesthetized rat lying on its back, the sterile prepped ventral abdominal skin is picked up, just above the left groin (inguinal) area and a small incision is made with scissors being careful to avoid the underlying peritonium. The fourth mammary gland is easily visible, lying on the dorsal surface of the skin directly on top of a junction point for the mammary artery and vein. Using a 1 cc syringe, 10^6 cells (0.1 ml) were injected directly into the gland. Only one mammary gland per rat was inoculated with tumor cells. The skin wound was closed with surgical staples. Surgical staples were removed 3 days after insertion.
Animals are treated with test agents and imaged 7 days after tumor injections. Test agents are administered via a tail vein injection (100-500 μl). For MR studies, animals received a pre-injection scan, followed by post-injection scans. Images were obtained post injection at approximately 4-minute intervals following injection for up to 30-40 minutes. In some experiments images were again taken at 24 hours after injection. For optical studies, animals were imaged at 0.5, 6, 12, and 24 hours.
Step 2. Agent Administration. After approximately 8 days following tumor cell implantation (the tumor size reached about 5-10 mm diameter) one of several imaging agents listed in Table 2 was administered to the animal at the corresponding dosage indicated in Table 2.
Step 3. Surgical Resection. Surgical tumor resection is a non-survival surgery. Tumors were resecteded when they reached a diameter in the range of 5-10 mm in diameter. With the anesthetized rat lying on its back, the ventral abdominal skin is picked up, just above the left groin (inguinal) area and a small incision is made (at or near the site of tumor inoculation) with scissors being careful to avoid the underlying peritonium. The tumor, growing in the mammary gland, stays contained in this tissue and is easily removed. The tumor was held with a pair of forceps and using a scalpel is removed from the surrounding connective tissue. After the tumor was removed, a midline incision, through the peritoneum was made, other organs were observed and imaged, and sampled for histological and biodistribution studies.
Step 4. Data Capture. Images were captured for later evaluation of the relative intensity of fluorescence in the kidney, liver, bladder, muscle etc. Samples of blood and urine were acquired and stored, the animal was sacrificed, and the clearance organs were removed from animal and frozen in a slurry of dry ice and 2-methylbutane. The tissues were then placed in an embedding medium (OCT, […]) and frozen at −80° C. Blood and urine samples were analyzed for concentration of agent at this time point, and for evidence of metabolism of the administered agent.
Statistical Analysis of Optical Imagine Results. To reduce the large number of variables in this problem and one polymer length (˜400 residues) was chosen at a high percentage conjugation (˜96%) for the MR imaging moiety (Gd-DTPA) with one dye per molecule. In one set of experiments, a tetra-sulfonated dye (Cy5.5-NHS-Ester) was then compared with a bis-sulfonated dye (Cy5-NHS-Ester). […]

## CC[N+]1=C(C=CC=CC=C2N(CCCCCC(=O)O)c3ccc(S(=O)(=O)[O-])cc3C2(C)C)C(C)(C)c2cc(S(=O)(=O)[O-])ccc21.[Na+] [Cy5 free dye, 2-[5-[1-(5-carboxypentyl)-1,3-dihydro-3,3-dimethyl-5-sulfo-2H-indol-2-ylidene]-penta-1,3-dienyl]-3,3-dimethyl-5-sulfo-1-ethyl-3H-indolium, inner salt, sodium salt]
Dose printed as 'blank', 6 hours post injection
  Average of Tumor/Bkgnd: 1.17
Dose printed as 'blank', 12 hours post injection
  Average of Tumor/Bkgnd: 1.18
Dose printed as 'blank', 24 hours post injection
  Average of Tumor/Bkgnd: 1.17
Dose printed as 'blank', Total over time points
  Average of Tumor/Bkgnd: 1.17
Vector subtotal over all doses, 6 hours post injection
  Average of Tumor/Bkgnd: 1.17
Vector subtotal over all doses, 12 hours post injection
  Average of Tumor/Bkgnd: 1.18
Vector subtotal over all doses, 24 hours post injection
  Average of Tumor/Bkgnd: 1.17
Vector subtotal over all doses, Total over time points
  Average of Tumor/Bkgnd: 1.17
